{
  "source": "patent US8415469B2",
  "about": "“Compounds and methods for kinase modulation, and indications therefor” (Plexxikon Inc., priority 2005, dated 2013)",
  "assay_type_in_all_cases": "biochemical",
  "key": {"[1]": {"molecular_target": "T1, TEC (Homo sapiens, UniProt P42680)", "T1 sequence (P42680 1-631)": "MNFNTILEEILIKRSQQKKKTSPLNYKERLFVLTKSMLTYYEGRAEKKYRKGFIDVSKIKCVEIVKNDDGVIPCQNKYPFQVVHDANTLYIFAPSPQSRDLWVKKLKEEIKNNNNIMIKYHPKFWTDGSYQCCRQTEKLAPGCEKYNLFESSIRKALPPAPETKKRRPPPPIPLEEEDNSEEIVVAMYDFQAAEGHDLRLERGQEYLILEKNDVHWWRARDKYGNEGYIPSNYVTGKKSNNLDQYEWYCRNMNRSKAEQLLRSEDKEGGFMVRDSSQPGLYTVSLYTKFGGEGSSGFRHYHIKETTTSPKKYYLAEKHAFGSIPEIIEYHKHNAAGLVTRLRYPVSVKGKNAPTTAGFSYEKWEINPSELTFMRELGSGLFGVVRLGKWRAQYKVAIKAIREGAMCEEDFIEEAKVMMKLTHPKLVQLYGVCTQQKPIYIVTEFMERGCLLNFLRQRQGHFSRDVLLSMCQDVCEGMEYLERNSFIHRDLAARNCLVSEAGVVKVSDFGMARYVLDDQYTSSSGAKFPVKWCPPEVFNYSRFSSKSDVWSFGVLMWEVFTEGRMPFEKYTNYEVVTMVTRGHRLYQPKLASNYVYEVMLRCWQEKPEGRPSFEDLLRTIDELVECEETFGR", "experiment": "AlphaScreen kinase assay, TEC", "details": "read-out: IC50, activity toward kinase TEC", "summary_of_the_method": "(§1)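 Inhibition reads as diminished acceptor emission, since unphosphorylated peptide fails to bridge antibody acceptor beads and streptavidin donor beads. Titration: eight points, 1:3 steps, stocks at 20 mM in DMSO.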"}, "[2]": {"molecular_target": "Frk (Homo sapiens, UniProt P42685)", "sequence (P42685 whole entry)": "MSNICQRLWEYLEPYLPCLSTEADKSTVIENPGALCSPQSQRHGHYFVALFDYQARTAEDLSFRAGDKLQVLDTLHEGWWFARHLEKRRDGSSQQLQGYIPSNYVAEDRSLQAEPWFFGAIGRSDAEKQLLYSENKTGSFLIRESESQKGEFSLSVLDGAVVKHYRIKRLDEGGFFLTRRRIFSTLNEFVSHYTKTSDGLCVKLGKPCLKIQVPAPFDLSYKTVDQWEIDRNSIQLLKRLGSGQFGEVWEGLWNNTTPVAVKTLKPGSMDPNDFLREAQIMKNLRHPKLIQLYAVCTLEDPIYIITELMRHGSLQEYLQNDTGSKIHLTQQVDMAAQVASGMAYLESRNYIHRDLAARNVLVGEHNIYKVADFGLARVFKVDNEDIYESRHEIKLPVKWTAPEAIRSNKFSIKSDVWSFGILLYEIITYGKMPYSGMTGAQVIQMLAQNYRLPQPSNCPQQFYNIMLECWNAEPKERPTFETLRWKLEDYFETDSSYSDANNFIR", "experiment": "AlphaScreen kinase assay, Frk", "details": "read-out: IC50, activity toward kinase Frk", "summary_of_the_method": "as §1"}, "[3]": {"molecular_target": "Csk (Homo sapiens, UniProt P41240)", "sequence (P41240 whole entry)": "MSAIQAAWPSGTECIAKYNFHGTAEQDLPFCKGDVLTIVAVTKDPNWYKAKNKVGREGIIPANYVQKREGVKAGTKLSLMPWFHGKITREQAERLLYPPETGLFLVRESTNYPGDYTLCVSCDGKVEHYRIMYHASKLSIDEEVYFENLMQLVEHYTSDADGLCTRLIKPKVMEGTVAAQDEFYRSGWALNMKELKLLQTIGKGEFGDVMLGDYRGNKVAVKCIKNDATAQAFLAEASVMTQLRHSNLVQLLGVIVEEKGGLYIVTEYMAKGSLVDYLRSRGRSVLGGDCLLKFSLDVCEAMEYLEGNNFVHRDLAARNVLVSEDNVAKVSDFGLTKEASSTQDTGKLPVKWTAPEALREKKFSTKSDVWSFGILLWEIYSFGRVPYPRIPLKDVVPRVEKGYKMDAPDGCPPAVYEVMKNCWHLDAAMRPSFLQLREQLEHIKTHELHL", "experiment": "AlphaScreen kinase assay, Csk", "details": "read-out: IC50, activity toward kinase Csk", "text": "(§2) AlphaScreen assay was used to screen additional kinases. The assay is similarly dependent on the phosphorylation of a peptide substrate. In this assay, an antibody that recognizes phosphorylated substrate is bound to an acceptor bead. The peptide substrate is attached to biotin, which binds to a donor head that contains streptavidin. Thus phosphorylated substrate is bound by antibody and streptavidin, bringing the donor and acceptor heads into close proximity when kinase is not inhibited. The donor produces singlet oxygen which results in emission from the acceptor when they are in close proximity. Conversely, when kinase is inhibited, the donor and acceptor beads are not associated and the emission from the acceptor is reduced.\n(§3) AlphaScreen assays were done using compounds dissolved in DMSO to a concentration of 20 mM. The compounds were diluted accordingly to the desired final concentrations in each sample well, using 1:3 serial dilution for a total of 8 concentration points."}, "[4]": {"molecular_target": "T2, IKK beta (Homo sapiens, UniProt O14920)", "T2 sequence (O14920 1-756)": "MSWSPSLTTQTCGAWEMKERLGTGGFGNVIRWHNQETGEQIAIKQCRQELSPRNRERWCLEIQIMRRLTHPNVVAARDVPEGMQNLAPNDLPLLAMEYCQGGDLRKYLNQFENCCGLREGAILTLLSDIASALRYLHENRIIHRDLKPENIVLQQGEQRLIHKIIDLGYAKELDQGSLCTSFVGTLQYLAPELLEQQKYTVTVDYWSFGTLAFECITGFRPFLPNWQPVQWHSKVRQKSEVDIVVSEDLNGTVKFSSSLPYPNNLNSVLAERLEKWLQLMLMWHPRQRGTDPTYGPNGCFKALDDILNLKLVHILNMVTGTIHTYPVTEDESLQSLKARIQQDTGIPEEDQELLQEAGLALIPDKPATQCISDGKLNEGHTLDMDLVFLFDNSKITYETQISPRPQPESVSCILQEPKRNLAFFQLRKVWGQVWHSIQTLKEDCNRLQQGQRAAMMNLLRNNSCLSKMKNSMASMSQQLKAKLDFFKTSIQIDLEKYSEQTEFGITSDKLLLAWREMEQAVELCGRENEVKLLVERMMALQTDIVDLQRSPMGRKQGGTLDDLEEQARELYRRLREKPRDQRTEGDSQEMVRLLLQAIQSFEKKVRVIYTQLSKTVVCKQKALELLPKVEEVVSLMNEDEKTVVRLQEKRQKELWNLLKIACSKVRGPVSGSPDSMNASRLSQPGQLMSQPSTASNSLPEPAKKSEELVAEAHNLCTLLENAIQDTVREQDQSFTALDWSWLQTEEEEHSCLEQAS", "experiment": "AlphaScreen kinase assay, IKK beta", "details": "read-out: IC50, activity toward kinase IKK beta"}, "[5]": {"molecular_target": "T3, Pim1 (Homo sapiens, UniProt P11309)", "T3 construct": "P1215.pET29SRI PIM1 E29-K313 HIS WT; made in house", "T3 sequence (P11309 with tags, fused parts or gaps)": "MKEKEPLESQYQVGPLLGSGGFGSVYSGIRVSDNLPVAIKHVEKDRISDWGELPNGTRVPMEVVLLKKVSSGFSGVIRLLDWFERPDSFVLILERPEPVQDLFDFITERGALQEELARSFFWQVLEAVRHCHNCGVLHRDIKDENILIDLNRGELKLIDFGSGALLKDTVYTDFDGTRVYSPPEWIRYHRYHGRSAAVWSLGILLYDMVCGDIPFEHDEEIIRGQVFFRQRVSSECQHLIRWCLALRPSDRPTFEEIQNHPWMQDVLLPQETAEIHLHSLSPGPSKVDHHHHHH", "experiment": "AlphaScreen kinase assay, Pim1", "details": "read-out: IC50, activity toward kinase Pim1", "text": "as §2, §3"}},
  "data": [
    {"smiles": "CCCS(=O)(=O)Nc1ccc(F)c(C(=O)c2c[nH]c3ncc(-c4cccnc4)cc23)c1F", "note": "[Compound P-0088, Propane-1-sulfonic acid [2,4-difluoro-3-(5-pyridin-3-yl-1H-pyrrolo[2,3-b]pyridine-3-carbonyl)-phenyl]-amide]", "values": [
      {"measurement": "IC50", "setting": "[1]", "result": "≤ 10", "unit": "µM"}
    ]},
    {"smiles": "OCCOc1ccc(F)c(Cc2c[nH]c3ncc(-c4cccnc4)cc23)c1F", "note": "[Compound P-1394, 2-[2,4-Difluoro-3-(5-pyridin-3-yl-1H-pyrrolo[2,3-b]pyridin-3-ylmethyl)-phenoxy]-ethanol]", "values": [
      {"measurement": "IC50", "setting": "[2]", "result": "≤ 10", "unit": "µM"},
      {"measurement": "IC50", "setting": "[3]", "result": "≤ 10", "unit": "µM"}
    ]},
    {"smiles": "CCCCNC(=O)Nc1ccc(F)c(C(=O)c2c[nH]c3ncc(-c4cccnc4)cc23)c1F", "note": "[Compound P-1318, 1-Butyl-3-[2,4-difluoro-3-(5-pyridin-3-yl-1H-pyrrolo[2,3-b]pyridine-3-carbonyl)-phenyl]-urea]", "values": [
      {"measurement": "IC50", "setting": "[2]", "result": "≤ 10", "unit": "µM"}
    ]},
    {"smiles": "O=C(O)/C=C/c1cccc(-c2cnc3[nH]cc(C(=O)c4ccccc4F)c3c2)c1", "note": "[Compound P-0033]", "values": [
      {"measurement": "IC50", "setting": "[1]", "result": "≤ 10", "unit": "µM"}
    ]},
    {"smiles": "CCCS(=O)(=O)Nc1ccc(F)c(C(=O)c2c[nH]c3ncccc23)c1F", "note": "[Compound P-0007, Propane-1-sulfonic acid [2,4-difluoro-3-(1H-pyrrolo[2,3-b]pyridine-3-carbonyl)-phenyl]-amide]", "values": [
      {"measurement": "IC50", "setting": "[2]", "result": "≤ 10", "unit": "µM"},
      {"measurement": "IC50", "setting": "[4]", "result": "≤ 10", "unit": "µM"},
      {"measurement": "IC50", "setting": "[3]", "result": "≤ 10", "unit": "µM"}
    ]},
    {"smiles": "Cc1ccccc1C(=O)c1c[nH]c2nccc(-c3ccc(C(N)=O)cc3)c12", "note": "[Compound P-0017]", "values": [
      {"measurement": "IC50", "setting": "[1]", "result": "≤ 10", "unit": "µM"}
    ]},
    {"smiles": "COc1ccc(F)c(C(=O)c2c[nH]c3ncc(-c4cccnc4)cc23)c1", "note": "[Compound P-0090]", "values": [
      {"measurement": "IC50", "setting": "[5]", "result": "≤ 10", "unit": "µM"}
    ]},
    {"smiles": "Fc1cc(F)cc(-c2ccnc3[nH]cc(Sc4ccccn4)c23)c1", "note": "[Compound P-0106]", "values": [
      {"measurement": "IC50", "setting": "[4]", "result": "≤ 10", "unit": "µM"}
    ]},
    {"smiles": "O=C(c1ccc(O)cc1)c1c[nH]c2ncc(-c3cccs3)cc12", "note": "[Compound P-0024, (4-Hydroxy-phenyl)-(5-thiophen-2-yl-1H-pyrrolo[2,3-b]pyridin-3-yl)-methanone]", "values": [
      {"measurement": "IC50", "setting": "[5]", "result": "≤ 10", "unit": "µM"}
    ]},
    {"smiles": "NC(=O)c1ccc(-c2ccnc3[nH]cc(C(=O)c4cc(F)ccc4F)c23)cc1", "note": "[Compound P-0013]", "values": [
      {"measurement": "IC50", "setting": "[4]", "result": "≤ 10", "unit": "µM"}
    ]},
    {"smiles": "Cc1ccccc1C(=O)c1c[nH]c2nccc(-c3cccc(N)c3)c12", "note": "[Compound P-0044]", "values": [
      {"measurement": "IC50", "setting": "[1]", "result": "≤ 10", "unit": "µM"}
    ]},
    {"smiles": "CCCS(=O)(=O)Nc1ccc(F)c(C(=O)c2c[nH]c3ncc(OC)cc23)c1F", "note": "[Compound P-0806, Propane-1-sulfonic acid [2,4-difluoro-3-(5-methoxy-1H-pyrrolo[2,3-b]pyridine-3-carbonyl)-phenyl]-amide]", "values": [
      {"measurement": "IC50", "setting": "[3]", "result": "≤ 10", "unit": "µM"}
    ]},
    {"smiles": "NC(=O)c1ccc(-c2ccnc3[nH]cc(C(=O)c4ccccc4F)c23)cc1", "note": "[Compound P-0014]", "values": [
      {"measurement": "IC50", "setting": "[4]", "result": "≤ 10", "unit": "µM"}
    ]},
    {"smiles": "COc1cc(OC)cc(C(=O)c2c[nH]c3ncc(-c4cccc(NS(C)(=O)=O)c4)cc23)c1", "note": "[Compound P-1426, N-{3-[3-(3,5-Dimethoxy-benzoyl)-1H-pyrrolo[2,3-b]pyridin-5-yl]-phenyl}-methanesulfonamide]", "values": [
      {"measurement": "IC50", "setting": "[3]", "result": "≤ 10", "unit": "µM"}
    ]},
    {"smiles": "CN(C)S(=O)(=O)Nc1ccc(F)c(Cc2c[nH]c3ncc(-c4cccnc4)cc23)c1F", "note": "[Compound P-0166]", "values": [
      {"measurement": "IC50", "setting": "[1]", "result": "≤ 10", "unit": "µM"}
    ]},
    {"smiles": "COc1cccc(C(=O)c2c[nH]c3ncc(-c4cccc(NC(C)=O)c4)cc23)c1F", "note": "[Compound P-1336, N-{3-[3-(2-Fluoro-3-methoxy-benzoyl)-1H-pyrrolo[2,3-b]pyridin-5-yl]-phenyl}-acetamide]", "values": [
      {"measurement": "IC50", "setting": "[2]", "result": "≤ 10", "unit": "µM"},
      {"measurement": "IC50", "setting": "[3]", "result": "≤ 10", "unit": "µM"}
    ]},
    {"smiles": "Nc1ccnc2[nH]cc(C(=O)c3ccccc3)c12", "note": "[Compound P-0029]", "values": [
      {"measurement": "IC50", "setting": "[4]", "result": "≤ 10", "unit": "µM"}
    ]}
  ]
}
